In data set [1] the test system is HeLa cells. The conditions noted are these: 2 h incubation, MTT; for cytotoxicity: pH 6.0, 20 µM; for viability of cells: pH 7.4 and pH 6.5, different concentrations. The method, then:
Cytotoxicity of all peptides against HeLa cells was evaluated using the MTT assay under varying pH conditions (pH 7.4, 6.5 and 6.0). Cells were seeded at 1 × 10^4 cells/well in 96-well plates, 24 h before treatment. After washing, cells were treated with serum-free medium, adjusted to pH 7.4, 6.5 or 6.0, and containing various concentrations of peptides. After 2 h incubation, 10 µL of MTT (5 mg/mL) was added to each well and incubated for another 4 h at 37°C. Then, the medium was removed and cells were dissolved by 150 µL dimethyl sulfoxide. Absorbance was determined using a microplate reader at 490 nm. Cell viability (%) was calculated using the following equation: Atest∕Acontrol × 100%, where Atest and Acontrol represent the absorbance of cells treated with different test solutions and blank culture media, respectively.

The subject of data set [2] is HeLa cells. The conditions noted are these: 2 h incubation, n = 3; for LDH levels with decreasing pH: pH 7.4, 6.5, 6.0. The method, then: Membrane integrity was evaluated using the CytoTox-ONE assay. Cells were seeded at 1 ×10^4cells/well in a 96-well plate 24 h before treatment. After 2 h incubation with 100 µL serum-free medium, adjusted to pH 7.4, 6.5 or 6.0 and containing various concentrations of peptides, 40 µL of medium was transferred to a black fluorescence plate and incubated for 10 min with 40 µL of CytoTox-ONE reagent, followed by 20 µL of stop solution. Fluorescence was recorded with an excitation wavelength of 560 nm and emission wavelength of 590 nm. Untreated cells were defined as those where no leakage was observed while 100% leakage was defined as a total release of LDH due to cell lysis in 0.2% Triton X-100.

In the next data set the test system is mice red blood cells. To be noted: mouse erythrocytes in PBS, 1 h at 37°C; maximum concentration of 200 µM; n = 3.
For data set [3] the following is noted: in vitro and in vivo conditions; ref Zhang et al., 2011; cited from earlier work. The text has this: In recent years, pH-responsive CPPs have been developed for targeted delivery based on the pH gradient between the tumor tissues and physiological environment ([Lee, Gao & Bae, 2008]; [Shi et al., 2015]; [Jiang et al., 2012]; [Fei et al., 2014]). […] The acidic tumor microenvironment mandates the development of pH-responsive CPPs for improved s ...

On the set-up of data set [4]: method as in Zaro, Fei & Shen, 2012; Ouahab et al., 2014. The conditions noted are these: ref Zaro, Fei & Shen, 2012; Ouahab et al., 2014; cited from earlier work. From the text: However, due to the imidazole on histidine with a pKa around 6.5, histidine could protonate into a net positive charge at pH values below 6.5 ([Zaro, Fei & Shen, 2012]; [Ouahab et al., 2014]), thereby activating the membrane penetrating activity of TH and allowing its entry into the cells. However, histidine becomes relatively insensitive to the tumor extracellular environment when the pH is in the 6.5–7.2 range, thereby reducing the pH-dependent penetrating activity of TH. In order to extend the applications of acid-activated CPPs, it is necessary to improve their pH-response. The ability of ...

A short description of data set [5]: RP-HPLC retention time on C18 column (hydrophobicity). The conditions noted are these: for RP-HPLC retention times: analytical RP-HPLC, C18, sunfire column 3.9 mm × 150 mm, Waters, used as measure of hydrophobicity. Type of data set: physicochemical. The method, then: All peptides shown in Table 1 were synthesized on a MBHA (0.43mmol/g) resin using the standard Fmoc-chemistry-based strategy. Fluorescein moiety (FITC) was attached to the N-terminusvia an aminohexanoic acid spacer by treating the resin-bound peptide (0.1 mmol) with FITC (0.1 mmol) and diisopropyl ethyl amine (0.5 mmol) in DMF for 12 h. All crude peptides were purified and analyzed by reversed-phase high performance liquid chromatography (RP-HPLC) on a C18 column, and then characterized by electrospray ionization mass spectrometry (ESI-MS).
Generally, cationic CPPs can bind on the anionic membrane surfaces via electrostatic interaction and promote cellular uptake ([Poon & Gariepy, 2007]). Thus, cationic functionalityis a critical factor for cell penetration. Histidine is especially pH-responsive ([Zaro, Fei & Shen, 2012]; [Ouahab et al., 2014]). Due to the presence of an imidazole ring, it has the ability to receive protons and protonate into a positive charge in an acidic tumor environment, whereas it remains predominantly uncharged under normal physiological conditions. The pH-responsiveness of histidine has been widely utilizedin the design of pH-responsive CPPs for targeted drug delivery. The protonation ability of histidine’simidazole moiety is the key for pH-dependent cellular uptake of histidine-rich peptides. […] In this regard, this study focused on the development of new histidine analogs that enhance the protonation of histidine by introducing alkylated groups with different electron-donating ability.

In data set [6] the test system is HeLa cells. As to the kind of experiment: Quantitative cellular uptake assay (flow cytometry) of FITC-labeled peptides. To be noted: 1 h; for fluorescence intensity / cellular uptake relative to TH: all pH values (7.4, 6.5, 6.0); for fluorescence intensity / cellular uptake relative to TH / pH-responsive effect (change of fluorescence from pH 7.4 to pH 6.0) relative to TH: 5 µM FITC-labeled peptide. Type of data set: cell-based. The method, then: The cells were harvested and centrifuged at 1,000 rpm for 5 min. Subsequently, the cell pellet was suspended and washed twice with PBS and resuspended in PBS. Finally, fluorescence intensity of 10,000 cells was analyzed with an FACS caliber flow cytometer using 488-nm laser excitation.
For orientation: Flow cytometry measures light scatter and fluorescence of single cells or particles in a stream.

Data set [7] relates to HeLa cells. As to the kind of experiment: Confocal laser scanning microscopy of FITC-labeled peptides. The conditions noted are these: CLSM, 5 µM FITC-labeled peptide, 1 h, 37°C; for pH-responsiveness of cellular uptake: pH 7.4, 6.5, 6.0. Type of data set: cell-based. On the procedure: To obtain a direct insight into the distribution of FITC-labeled peptides in cells, HeLa cells (6 × 10^4 cells/well) were plated in a glass-bottom culture dish for 24 h and then incubated with the FITC-labeled peptides using conditions and concentrations described above. After 1 h incubation at 37°C, the cells were washed with cold PBS three times and imaged using confocal laser scanning microscopy.

Where a SMILES comes first, the peptide text is derived from it. [ ]: non-standard residue; d: D form. Aib = CC(C)(N)C(=O)O

Procedure for mice red blood cells: Fresh mouse blood was collected in heparin sodium-containing centrifuge tubes. Erythrocytes were separated by centrifugation at 800×g for 10 min and washed three times with phosphate buffered saline (PBS). Obtained erythrocytes were resuspended in PBS to 8 % (v/v). 100 µL of the peptide solution of various concentrations and 100 µL of the erythrocyte suspension were added to the wells of a 96-well plate. PBS and 0.2 % TritonX-100 were used as agents for 0 % and 100 % hemolysis, respectively. Plates were incubated for 1 h at 37°C and centrifuged at 1,200×g for 15 min. A total of 100 µL of each supernatant was transferred to a 96-well plate, and the release of hemoglobin was determined using a microplate reader at 490 nm.

In the case of `CC[C@H](C)[C@H](NC(=O)[C@H](Cc1c[nH]cn1)NC(=O)[C@H](Cc1c[nH]cn1)NC(=O)C(C)(C)NC(=O)[C@H](CC(C)C)NC(=O)[C@H](Cc1c[nH]cn1)NC(=O)[C@H](C)NC(=O)[C@H](CC(C)C)NC(=O)[C@H](Cc1c[nH]cn1)NC(=O)[C@H](Cc1c[nH]cn1)NC(=O)[C@H](CC(C)C)NC(=O)[C@H](CC(N)=O)NC(=O)[C@@H](NC(=O)[C@H](Cc1c[nH]cn1)NC(=O)CNC(=O)[C@H](CC(C)C)NC(=O)[C@H](CC(C)C)NC(=O)[C@H](Cc1ccc(O)cc1)NC(=O)CNC(=O)[C@H](C)N)[C@@H](C)CC)C(=O)N[C@@H](CC(C)C)C(N)=O` [TH] (H-AGYLLGHINLHHLAHL[Aib]HHIL-NH2), in the data set with HeLa cells [1], the cytotoxicity result is “increased” and the viability of cells result is “higher than 80%”. Further, the “LDH levels with decreasing pH” value with HeLa cells [2] is given as “rose as the pH value decreased”. Moreover, the “hemolytic activity (cytotoxicity against red blood cells)” value in the data set on mice red blood cells is recorded as “little cytotoxicity against red blood cells”. Also, in data set [3], the “toxicity compared to TK” value is reported as “decreased”.
For the compound `N[C@@H](Cc1c[nH]cn1)C(=O)O` [histidine], in data set [4], the “pKa of the imidazole on histidine” value is listed as “around 6.5”.
In data set [5], “AGYLLGHBINLHBHBLAHBL(Aib)HBHBIL-NH2 [Butyl-TH]” returned an RP-HPLC retention times of 20.561 min. In the data set on HeLa cells [6], the “fluorescence intensity / cellular uptake relative to TH” value is given as “increased remarkably”. Moreover, in the data set with HeLa cells [6] (pH 6.5, 5 µM FITC-labeled peptide, serum-free medium), the “fluorescence intensity, fold higher than TH” value is “approximately 1.72 fold”. Besides, in the data set on HeLa cells [7], the “pH-responsiveness of cellular uptake” value is reported as “more pH-responsive at pH 6.5”. For the same compound, the “cytotoxic variation from pH 7.4 to pH 6.0” value in the data set with HeLa cells [1] is “didn’t show obvious cytotoxic variation”. Also, in the data set on HeLa cells [2], the “LDH levels at pH 6.5 and pH 6.0 relative to pH 7.4” value was “comparable to that at pH 7.4”.
The compound “AGYLLGHEINLHEHELAHEL(Aib)HEHEIL-NH2 [Ethyl-TH]” gave an RP-HPLC retention times in data set [5] of 18.623 min. The “pH-responsive effect (change of fluorescence from pH 7.4 to pH 6.0) relative to TH” value with HeLa cells [6] is on record as “better than TH”. In addition, the “fluorescence intensity relative to TH” value with HeLa cells [6] (pH 7.4 and 6.5, 5 µM FITC-labeled peptide) is “lower fluorescence intensity than TH”. Also, in the data set on HeLa cells [7], the “pH-responsiveness of cellular uptake” value was “better pH-dependent cellular uptake than TH at pH 6.0”. In addition, in the data set with HeLa cells [1], the cytotoxicity result is given as “increased” and the viability of cells entry is on record as “higher than 80%”. Also, the “LDH release in comparison with TH and the other analogs” value in the data set with HeLa cells [2] (pH 6.0) is “most obvious LDH release”. For the same compound, the “LDH levels with decreasing pH” value with HeLa cells [2] is on record as “rose as the pH value decreased”.
As to “AGYLLGHIINLHIHILAHIL(Aib)HIHIIL-NH2 [Isopropyl-TH]”, in data set [5], the RP-HPLC retention times is listed as 19.041 min. For the same compound, the “pH-responsive effect (change of fluorescence from pH 7.4 to pH 6.0) relative to TH” value in the data set on HeLa cells [6] is reported as “lower than that of TH”. Moreover, in the data set on HeLa cells [7], the “fluorescence intensity at pH 6.5 relative to pH 7.4” value was “slightly lower than that at pH 7.4” and the “pH-responsiveness of cellular uptake” value is reported as “no pH-responsive at pH 6.5”. Also, the “cytotoxic variation from pH 7.4 to pH 6.0” value in the data set on HeLa cells [1] is recorded as “didn’t show obvious cytotoxic variation”. In the data set with HeLa cells [2], the “LDH levels at pH 6.5 and pH 6.0 relative to pH 7.4” value is “comparable to that at pH 7.4”.
Turning to “AGYLLGHMINLHMHMLAHML(Aib)HMHMIL-NH2 [Methyl-TH]”, the RP-HPLC retention times in data set [5] came out at 18.058 min. For the same compound, the “hydrophobicity relative to TH” value in data set [5] (from retention time on the C18 reverse-phase HPLC column) was “less hydrophobic than TH”. Further, the “fluorescence intensity / cellular uptake relative to TH” value with HeLa cells [6] is listed as “reduction of cellular uptake”. The “cellular uptake relative to TH” value with HeLa cells [7] (pH 6.5 and pH 6.0) is listed as “lower cellular uptake than TH”. Besides, the “pH-responsiveness of cellular uptake” value in the data set on HeLa cells [7] is recorded as “poor pH-responsiveness”. For the same compound, the “cytotoxicity at low pH” value with HeLa cells [1] (pH 6.5 and pH 6.0) is “didn’t show any significant cytotoxicity”. Besides, in the data set with HeLa cells [2], the “LDH levels at pH 6.5 and pH 6.0 relative to pH 7.4” value is recorded as “comparable to that at pH 7.4”.
